Results taken from publication PMC12142043, “Cell-based high-content approach for SARS-CoV-2 neutralization identifies unique monoclonal antibodies and PI3K pathway inhibitors” (Frontiers in Cell and Developmental Biology, 2025).
Counter-ions that a name gives are not always drawn.

System: SARS-CoV-2 (USA-WA1/2020) in Calu-3 cells
Assay type: cell-based
Conditions: Calu-3, 48 h; for dsRNA signal, AU High: high dose (10 µM); for dsRNA signal, AU Low: low dose (100 nM)

| Structure (SMILES) | dsRNA signal, AU High | dsRNA signal, AU Low |
| --- | --- | --- |
| NC(=O)c1ccc(-c2nc(-c3ccc4c(c3)OCCO4)c(-c3ccccn3)[nH]2)cc1 [D4476] | 6178.6 AU | 10405.5 AU |
| Nc1cccc(S(=O)(=O)N2CCCN(S(=O)(=O)c3ccc4c(c3)OCCO4)CC2)c1 [DASA-58] | 7492.3 AU | 8577.3 AU |
| NC(=O)c1ccccc1Nc1ccnc(Nc2cccc(O)c2)n1 [DB07268] | 10652.5 AU | 37894.5 AU |
| O=C(O)C(Cl)Cl [DCA] | 2582.6 AU | 13605.1 AU |
| CCn1c(=O)c(-c2cc(NC(=O)Nc3ccccc3)c(F)cc2Br)cc2cnc(NC)cc21 [DCC-2618] | 31390.7 AU | 17341.0 AU |
| O=C(NCCN1CCCC1)c1cc(-c2ccc(CN3CCOCC3)cc2)nc2ccc(F)cc12 [DDD107498] | 38942.1 AU | 5409.3 AU |
| CC(C)Oc1ccc(-c2cnc3c(-c4ccnc5ccccc45)cnn3c2)cc1 [DMH-1] | 13545.0 AU | 45359.2 AU |
| CC(C)(C)c1nc(-c2cccc(NS(=O)(=O)c3c(F)cccc3F)c2F)c(-c2ccnc(N)n2)s1.CS(=O)(=O)O [Dabrafenib Mesylate (GSK-2118436)] | 27414.0 AU | 0.0 AU |
| COc1cc2ncnc(Nc3ccc(F)c(Cl)c3)c2cc1NC(=O)/C=C/CN1CCCCC1 [Dacomitinib (PF299804, PF299)] | 0.0 AU | 7030.9 AU |
| CNC(=O)c1ccc(Nc2ncc(C(F)(F)F)c(NCc3nccnc3N(C)S(C)(=O)=O)n2)cc1 [Defactinib] | 31683.7 AU | 56452.3 AU |
| CCCCOc1cc(C(=O)NCCN(CC)CC)c2ccccc2n1.Cl [Dibucaine (Cinchocaine) HCl] | 9319.1 AU | 11778.5 AU |
| CCCC(=O)Nc1ncnc2c1ncn2[C@@H]1O[C@@H]2COP(=O)([O-])O[C@H]2[C@H]1OC(=O)CCC.[Na+] [Dibutyryl-cAMP, sodium salt] | 10702.1 AU | 55803.3 AU |
| O=C1c2c(O)cc(O)cc2O[C@H](c2cc(O)c(O)c(O)c2)[C@H]1O [Dihydromyricetin] | 20863.8 AU | 12380.4 AU |
| CCc1cnn2c(NCc3ccc[n+]([O-])c3)cc(N3CCCC[C@H]3CCO)nc12 [Dinaciclib (SCH727965)] | 10476.7 AU | 0.0 AU |
| C[C@@H]1CC[C@@]2(OC1)O[C@H]1C[C@H]3[C@@H]4CC=C5C[C@@H](O)CC[C@]5(C)[C@H]4CC[C@]3(C)[C@H]1[C@@H]2C [Diosgenin] | 0.0 AU | 2764.9 AU |
| Cl.Cl.c1cc(-c2cnn3cc(-c4ccc(OCCN5CCCCC5)cc4)cnc23)ccn1 [Dorsomorphin 2HCl] | 1809.4 AU | 18817.3 AU |
| c1cc(-c2cnn3cc(-c4ccc(OCCN5CCCCC5)cc4)cnc23)ccn1 [Dorsomorphin (Compound C)] | 6395.6 AU | 1963.8 AU |
| CN1CCN(c2ccc3nc(-c4c(N)c5c(F)cccc5[nH]c4=O)[nH]c3c2)CC1 [Dovitinib (TKI-258, CHIR-258)] | 15765.0 AU | 183.2 AU |
| CC(O)C(=O)O.CC(O)C(=O)O.CN1CCN(c2ccc3nc(-c4c(N)c5c(F)cccc5[nH]c4=O)[nH]c3c2)CC1 [Dovitinib Dilactic acid] | 47107.5 AU | 17331.2 AU |

| Structure (SMILES) | dsRNA signal, AU High | dsRNA signal, AU Low |
| --- | --- | --- |
| O=C(Nc1nccs1)C(c1cc(F)ccc1O)N1Cc2ccccc2C1=O (stereo not drawn) [EAI045] | 0.0 AU | 14269.6 AU |
| O=c1cc(CN2CCOCC2)occ1OCCCCCSc1ccnc2cc(C(F)(F)F)ccc12 [EHT 1864] | 22471.9 AU | 17099.7 AU |
| CCn1c2ccccc2c2cc(Nc3ccnc(NCCCN4CCOCC4)n3)ccc21 [EHop-016] | 0.0 AU | 44568.8 AU |
| CCc1c(C(=O)NNC(=O)C(O)c2cc(F)cc(F)c2)ccc(O)c1C (stereo not drawn) [EMD638683] | 288.1 AU | 20264.2 AU |
| CN1CCC(COc2cnc(-c3cccc(Cn4nc(-c5cccc(C#N)c5)ccc4=O)c3)nc2)CC1 [EMD-1214063] | 14120.6 AU | 47689.1 AU |
| Cc1cccc(-c2[nH]c(CNc3ccccc3F)nc2-c2ccc3ncnn3c2)n1 [EW-7197] | 168.7 AU | 7205.0 AU |
| O=c1oc2c(O)c(O)cc3c(=O)oc4c(O)c(O)cc1c4c23 [Ellagic acid] | 14274.7 AU | 14007.9 AU |
| Cc1cc(O)c2c(c1)C(=O)c1cc(O)cc(O)c1C2=O [Emodin] | 20341.5 AU | 11688.8 AU |
| C#Cc1cccc(Nc2ncnc3cc(OCCOC)c(OCCOC)cc23)c1 [Erlotinib Hydrochloride] | 3624.7 AU | 52457.7 AU |
| C#Cc1cccc(Nc2ncnc3cc(OCCOC)c(OCCOC)cc23)c1 [Erlotinib] | 7272.0 AU | 15317.7 AU |
| CCOC(=O)c1cc(O)c(O)c(O)c1 [Ethyl gallate] | 180.5 AU | 60976.1 AU |
| Cc1ccc(-c2c(C(=O)CF)n(CCCO)c3ncnc(N)c23)cc1 [FMK] | 36246.0 AU | 14082.6 AU |
| Nc1[nH]nc2nnc(-c3c(-c4ccccc4)nn4ccccc34)cc12 [FR 180204] | 10806.0 AU | 12597.7 AU |
| CCn1c(=O)c(-c2ccc(-c3cncs3)cc2Cl)cc2cnc(Nc3ccc(N4CCN(C)CC4)cc3)nc21 [FRAX597] | 1538.8 AU | 50796.9 AU |
| CCCCCCCCc1ccc(CCC(N)(CO)CO)cc1 [Fingolimod (FTY720)] | 0.0 AU | 13731.4 AU |
| CN1CC[C@H](c2c(O)cc(O)c3c(=O)cc(-c4ccccc4Cl)oc23)[C@H](O)C1 [Flavopiridol] | 411.3 AU | 2633.8 AU |
| O=C(O)c1ccccc1Nc1cccc(C(F)(F)F)c1 [Flufenamic acid] | 29762.4 AU | 15182.6 AU |
| O=C(O)/C=C/C(=O)O [Fumalic acid] | 4691.7 AU | 6874.3 AU |
| O=C(NOCCO)c1ccc2cncn2c1Nc1ccc(I)cc1F [GDC-0623] | 0.0 AU | 1908.1 AU |

| Structure (SMILES) | dsRNA signal, AU High | dsRNA signal, AU Low |
| --- | --- | --- |
| OCCn1cc(-c2ccc3c(c2)CC/C3=N\O)c(-c2ccncc2)n1 [GDC-0879] | 7041.8 AU | 38492.2 AU |
| CS(=O)(=O)N1CCN(Cc2cc3nc(-c4cccc5[nH]ncc45)nc(N4CCOCC4)c3s2)CC1.CS(=O)(=O)O.CS(=O)(=O)O [GDC-0941 dimethanesulfonate] | 20950.7 AU | 35251.8 AU |
| CS(=O)(=O)N1CCN(Cc2cc3nc(-c4cccc5[nH]ncc45)nc(N4CCOCC4)c3s2)CC1 [GDC-0941] | 590.8 AU | 57346.3 AU |
| Cn1nccc1Nc1nccc(-c2ccn([C@H](CO)c3ccc(Cl)c(F)c3)c(=O)c2)n1 [GDC-0994] | 4912.8 AU | 7646.0 AU |
| O=C(Nc1nc2cccc(-c3ccc(CN4CCS(=O)(=O)CC4)cc3)n2n1)C1CC1 [GLPG0634] | 36.1 AU | 2690.2 AU |
| CNc1nc(Nc2cnn([C@H]3CCN(C4COC4)C[C@@H]3F)c2Cl)ncc1C(F)(F)F [GNE-9605] | 40803.1 AU | 41939.9 AU |
| NC(=O)c1cccc(-c2cc(Nc3ccc(OC(F)(F)F)cc3)ncn2)c1 [GNF 2] | 2578.1 AU | 60765.8 AU |
| O=C(NCCO)c1cccc(-c2cc(Nc3ccc(OC(F)(F)F)cc3)ncn2)c1 [GNF 5] | 498.5 AU | 65630.6 AU |
| Cc1ccc(NC(=O)Nc2cc(C(F)(F)F)ccc2F)cc1Nc1ccc2c(c1)NC(=O)/C2=C\c1ccc[nH]1 [GNF-5837] | 2750.0 AU | 23319.5 AU |
| c1cn2cc(-c3ccc4cn[nH]c4c3)nc(Nc3ccc(N4CCOCC4)cc3)c2n1 [GS-9973] | 32878.5 AU | 51541.3 AU |
| CC1=C(C(=O)Nc2cc3cn[nH]c3cc2F)C(c2ccc(C(F)(F)F)cc2)CC(=O)N1 (stereo not drawn) [GSK429286A] | 10329.9 AU | 34075.4 AU |
| CCn1c(-c2nonc2N)nc2c(C#CC(C)(C)O)ncc(OC[C@H]3CCCNC3)c21 [GSK690693] | 6007.3 AU | 39582.1 AU |
| O=C1NC(=O)/C(=C/c2ccc3nccc(-c4ccncc4)c3c2)S1 [GSK1059615] | 832.8 AU | 16639.6 AU |
| Cn1cc(-c2ccc3c(c2)CCN3C(=O)Cc2cccc(C(F)(F)F)c2)c2c(N)ncnc21 [GSK2606414] | 6871.8 AU | 28375.6 AU |
| Cc1cccc(CC(=O)N2CCc3c2ccc(-c2cn(C)c4ncnc(N)c24)c3F)n1 [GSK2656157] | 2371.9 AU | 33522.6 AU |
| COc1ccc(COc2ccc(Cc3cnc(N)nc3N)cc2OC)cc1 [GW2580] | 17974.9 AU | 13531.9 AU |
| O=C1Nc2ccc(I)cc2/C1=C/c1cc(Br)c(O)c(Br)c1 [GW5074] | 14683.4 AU | 20240.6 AU |
| Cn1cc(/C=C2\C(=O)Nc3cccnc32)c2ccccc21 [GW441756] | 33214.4 AU | 18067.5 AU |
| O=C(NC1CCOCC1)c1ccc(-c2cc(-c3c[nH]nc3-c3ccccn3)ccn2)cc1 [GW788388] | 8820.5 AU | 0.0 AU |
